Measurements reported in PMC9658835, “Acetophenone-Based 3,4-Dihydropyrimidine-2(1H)-Thione as Potential Inhibitor of Tyrosinase and Ribonucleotide Reductase: Facile Synthesis, Crystal Structure, In-Vitro and In-Silico Investigations” (International Journal of Molecular Sciences, 2022).

Biological target: mushroom tyrosinase
Test: mushroom tyrosinase (Sigma) enzyme inhibition assay
Type: biochemical

IC50: 1980 nM
Compound: CC(=O)c1ccc(N2C(=S)NC(C)(C)C=C2C)cc1 [compound 4, 1-(4-(4,4,6-trimethyl-2-thioxo-3,4-dihydropyrimidin-1(2H)-yl)phenyl)ethan-1-one]
